Reference: PubChem BioAssay AID743395 (Broad Institute, 2014)

tested on: HepG2 viability, CellTiter-Glo ATP luminescence, 72 h; assay: viability loss in human hepatoma cells – cell-based, CellTiter-Glo luminescence, cherry-pick, set 2, cytotoxicity control, dose response (AID 743395)

| Structure (SMILES) | AC35 |
| --- | --- |
| COc1ccc(OC)c2[nH]c(C(=O)N/N=C/c3ccccc3O)cc12 | 3.77 µM |
| COc1ccc(N2CCc3c(C)nc4c(OC)cc(OC)cc4c32)cc1 | 9.38 µM |
| Cc1cnc(NC(=O)c2ccc3c(c2)OCCO3)s1 | 4.22 µM |
| CC1(Cc2ccc(F)cc2)C(=O)Nc2c(Cl)ccc(Cl)c21 (configuration not stated) | 12 µM |
| COc1ccc(NC(=O)C2(C)Cc3c(-c4cccc(NC(C)=O)c4)ccnc3O2)cc1 (configuration not stated) | 4.15 µM |
| CC(C)C[C@H](NC(=O)c1nc[nH]c1C(=O)N1CCN(C(=O)OC(C)(C)C)CC1)C(=O)OC(C)(C)C | 14.6 µM |
| O=S(=O)(Nc1cc(Sc2cccc3cccnc23)c(O)c2ccccc12)c1ccccc1 | 7.49 µM |
| Cc1ncc(CO)c(/C=N/Nc2ccc(C(F)(F)F)cn2)c1O | 4.63 µM |
| O=S(=O)(Cc1ccc(Cl)cc1Cl)c1ccc(Cl)cc1 | 11.3 µM |
| CO[C@@]12[C@@H]3N[C@@H]3CN1C1=C(C(=O)C(N)=C(C)C1=O)[C@@H]2COC(N)=O | 9.61 µM |
| C=CCN1c2ccccc2[C@]23C[C@@H](C(=O)OC)N(C(=O)c4cccs4)C2=NC(C(=O)OC)=C(C(=O)OC)[C@H]13 | 19.1 µM |
| CC(C)CN(CCCNC(=O)CN1C(=O)CSc2ccc(S(=O)(=O)N3CCOCC3)cc21)CC(C)C | 6.21 µM |
| COc1cc2c(cc1OC)C(C)N(C(=O)Nc1cc(C)cc(C)c1)CC2 (configuration not stated) | 7.81 µM |
| CC(=O)NC(c1ccc2ccccc2c1)c1ccc2cccnc2c1O (configuration not stated) | 0.641 µM |
| CCN(CC)CCCNc1nc2ccccc2c2nc(-c3ccncc3)nn12 | 7.23 µM |
| COc1ccc(S(=O)(=O)N(C(=O)C(C)C)c2ccc3oc(=O)sc3c2)cc1 | 17.1 µM |
| O=C(N=Nc1c(O)[nH]c2ccc(Br)cc12)c1ccccc1-n1cccc1 | 13.1 µM |
| Cc1cccc(N2CCN(Cc3cn(C)nc3-c3ccccc3F)CC2)n1 | 3.97 µM |
| CN(C)CCn1c2ccccc2c2nc3ccc([N+](=O)[O-])cc3cc21 | 20.8 µM |
| COc1cccc(Sc2ccccc2/C=N/NC(N)=O)c1 | 9.98 µM |
| Cc1cc(C)c2nc(Cl)c(CN(Cc3ccco3)C(=O)Nc3ccccc3C)cc2c1 | 5.84 µM |
| Cc1nc(/N=C(\N)NC(=O)NC2CCCCC2)nc2ccccc12 | 20.2 µM |
| COC(=O)C1=CN(c2ccc(OC)cc2OC)C(N)=C(C#N)C1c1ccccc1F (configuration not stated) | 6.17 µM |
| CC(C)Nc1ccc(Nc2ccnc3cc4ccccc4cc23)cc1 | 2.44 µM |
| Cn1c(C(=O)c2ccccc2[N+](=O)[O-])nc2ccccc21 | 14.3 µM |
| COc1ccc(/C(C)=N/NC(=O)c2cccc(S(=O)(=O)N3CCCC3)c2)c(O)c1 | 0.944 µM |

| Structure (SMILES) | AC35 |
| --- | --- |
| C#C[C@]1(O)CC[C@H]2[C@@H]3CCc4cc(OC5CCCC5)ccc4[C@H]3CC[C@@]21C | 21 µM |
| COc1cccc(Nc2nc(-c3sc(NC(=O)c4ccccc4)nc3C)cs2)c1 | 6.58 µM |
| CC1CCN(C(=O)C2COc3ccccc3O2)CC1 (configuration not stated) | 21.8 µM |
| COc1ccc(C(=O)c2ccc(N(C)C)cc2)c(OC)c1 | 14.9 µM |
| c1ccc2c(NCCCN3CCOCC3)c3ccccc3nc2c1 | 2.78 µM |
| COc1ccccc1C#Cc1ccc2c(c1)O[C@@H](CN(C)Cc1cccnc1)[C@H](C)CN([C@H](C)CO)S2(=O)=O | 22.4 µM |
| Cc1cc(/C=N/n2c(COc3ccccc3C)nc3ccccc3c2=O)c(O)c([N+](=O)[O-])c1 | 8.05 µM |
| CC1(C)CCN2CCC(C)(C)c3c(O)ccc1c32 | 6.54 µM |
| COc1ccc(C2c3ccc4ccccc4c3Oc3ncn(CCCO)c(=N)c32)cc1OC (configuration not stated) | 18.7 µM |
| COc1cc(C(=O)Nc2ccccc2C(=O)Nc2ccccn2)cc(OC)c1OC | 4.9 µM |
| COc1cc(-c2nccc3cc4c(cc23)OCO4)cc(OC)c1OC | 5.6 µM |
| COc1ccc(-c2cc(C(F)F)n3ncc(C(=O)N4CCc5ccccc54)c3n2)cc1 | 9.81 µM |
| CCCC(=O)NC(c1ccc(Cl)cc1)c1ccc2cccnc2c1O (configuration not stated) | 1.77 µM |
| CC[n+]1c(-c2ccccc2)c2cc(N)ccc2c2ccc(N)cc21 | 21.5 µM |
| C=C1C(=O)[C@]23C[C@H]1CC[C@H]2[C@]1(C)[C@@H](OC(C)=O)CC[C@@](C)(C(=O)O)[C@H]1C[C@@H]3O | 11.3 µM |
| CCCCNC(=O)C(=O)Nc1ccc2c(c1)N(S(=O)(=O)c1cccs1)CCC2 | 12.7 µM |
| CC(C)C[C@H]1CN([C@@H](CC(C)C)CN2CCC[C@@H]2CN2C(=S)NC[C@@H]2Cc2ccc(O)cc2)C(=S)N1CCc1ccccc1 | 19.2 µM |
| CCCCNc1c(-c2ccc(SC(C)CC)c(OC)c2)nc2ccc(C)cn12 (configuration not stated) | 13.6 µM |
| Cc1ccc(OCCNC(=O)c2cccc(S(=O)(=O)NCc3ccccc3)c2)cc1 | 15.2 µM |
| COC(=O)c1cc(C(=O)N2CCN(c3cccc(Cl)c3)CC2)cc([N+](=O)[O-])c1 | 14.1 µM |
| COc1ccc2cc(CN(CC3CCCO3)C(=S)Nc3ccccc3)c(=O)[nH]c2c1 (configuration not stated) | 13 µM |
| Cc1cccc(N2CCN(C(=O)c3ccc4[nH]c(C)c(C)c4c3)CC2)c1C | 2.5 µM |
| CNc1ccc2c3c(cccc13)C(=O)N(C)C2=O | 15.7 µM |
| COc1ccc(-c2ccc3c(c2)[C@H]2[C@H](CCN2S(=O)(=O)c2ccc(OC)cc2)[C@@H](CO)N3C)cc1 | 18.2 µM |
| CC(=O)N1CCc2c(sc(NC(=O)c3ccc4c(c3)OCCO4)c2C#N)C1 | 19.4 µM |
| CCOc1ccc(C(=O)O/N=C(\N)c2ccccn2)cc1 | 16.5 µM |
